In patent US10947188B2, “Small molecule ferroptosis inducers” (THE TRUSTEES OF COLUMBIA UNIVERSITY IN THE CITY OF NEW YORK, priority 2016, dated 2021):
pEC50: −log10 of the molar value.

Tested on: BJeLR
Experiment: Modulatory profiling: Alamar Blue viability, lethal compound cotreated with death modulator (EC50, AUC)
Format: cell-based, human
Parameters: AUC, modulator BJ.Gd3+ / AUC, modulator BJ.LNAME / AUC, modulator BJ.Lmin / AUC, modulator BJ.3MA / AUC, modulator BJ.ALLN / AUC, modulator BJ.Boc D / AUC, modulator BJ.CHX / AUC, modulator BJ.Co2+ / AUC, modulator BJ.Nec-1 / AUC, modulator BJ.Pepstatin / AUC, modulator BJ.TLCK / AUC, modulator BJ.atoc / AUC, modulator BJ.trolox / AUC, modulator BJ.zVAD: unit not given beside the values
Conditions: for AUC, modulator BJ.3MA / AUC, modulator BJ.ALLN / AUC, modulator BJ.Boc D / AUC, modulator BJ.CHX / AUC, modulator BJ.Co2+ / AUC, modulator BJ.DPQ / AUC, modulator BJ.Gd3+ / AUC, modulator BJ.LNAME / AUC, modulator BJ.Lmin/NAD+ / AUC, modulator BJ.Lmin / AUC, modulator BJ.NAD+ / AUC, modulator BJ.NMMA / AUC, modulator BJ.Nec-1 / AUC, modulator BJ.Pepstatin / AUC, modulator BJ.TLCK / AUC, modulator BJ.atoc / AUC, modulator BJ.trolox / AUC, modulator BJ.zVAD: BJeLR cells, modulatory profile value (AUC); for AUC, modulator BJ.3MA: lethal compound cotreated with modulator 3MA; for AUC, modulator BJ.ALLN: lethal compound cotreated with modulator ALLN; for AUC, modulator BJ.Boc D: lethal compound cotreated with modulator Boc D; for AUC, modulator BJ.CHX: lethal compound cotreated with modulator CHX; for AUC, modulator BJ.Co2+: lethal compound cotreated with modulator Co2+; for AUC, modulator BJ.DPQ: lethal compound cotreated with modulator DPQ; for AUC, modulator BJ.Gd3+: lethal compound cotreated with modulator Gd3+; for AUC, modulator BJ.LNAME: lethal compound cotreated with modulator LNAME; for AUC, modulator BJ.Lmin/NAD+: lethal compound cotreated with modulator Lmin/NAD+; for AUC, modulator BJ.Lmin: lethal compound cotreated with modulator Lmin; for AUC, modulator BJ.NAD+: lethal compound cotreated with modulator NAD+; for AUC, modulator BJ.NMMA: lethal compound cotreated with modulator NMMA; for AUC, modulator BJ.Nec-1: lethal compound cotreated with modulator Nec-1; for AUC, modulator BJ.Pepstatin: lethal compound cotreated with modulator Pepstatin; for AUC, modulator BJ.TLCK: lethal compound cotreated with modulator TLCK; for AUC, modulator BJ.atoc: lethal compound cotreated with modulator atoc; for AUC, modulator BJ.trolox: lethal compound cotreated with modulator trolox; for AUC, modulator BJ.zVAD: lethal compound cotreated with modulator zVAD; for pEC50: Homo sapiens, BJeLR, 48 h
[1] = cotreated with antioxidant Trolox
[2] = cotreated with antioxidant atoc
[3] = cotreated with iron-chelator Lmim

Row | Structure (SMILES) | AUC, modulator BJ.3MA | AUC, modulator BJ.ALLN | AUC, modulator BJ.Boc D | AUC, modulator BJ.CHX | AUC, modulator BJ.Co2+ | AUC, modulator BJ.DPQ | AUC, modulator BJ.Gd3+ | AUC, modulator BJ.LNAME | AUC, modulator BJ.Lmin/NAD+ | AUC, modulator BJ.Lmin | AUC, modulator BJ.NAD+ | AUC, modulator BJ.NMMA | AUC, modulator BJ.Nec-1 | AUC, modulator BJ.Pepstatin | AUC, modulator BJ.TLCK | AUC, modulator BJ.atoc | AUC, modulator BJ.trolox | AUC, modulator BJ.zVAD | pEC50 (DMSO) | pEC50 (cotreated with Lmim_NAD) | other results
1 | CC[C@]1(O)C[C@@H]2CN(CCc3c([nH]c4ccccc34)[C@@](C(=O)OC)(c3cc4c(cc3OC)N(C)[C@H]3[C@@](O)(C(=O)OC)[C@H](OC(C)=O)[C@]5(CC)C=CCN6CC[C@]43[C@@H]65)C2)C1 [Vinbiastine] | 0.0131 | −0.07228 | 0.001717 | 0.2328 | 0.1876 | −0.0312 | 0.008351 | −0.0006349 | 0.1715 | 0.06584 | 0.1373 | 0.008107 | −0.06176 | 0.002398 | −0.003672 | 0.1487 | −0.01145 | 0.01552 | – | – | –
2 | COc1ccc(-n2nnnc2S(=O)(=O)CC(=O)N2CCCCC2)cc1 [CIL48] | 0.09789 | −0.1008 | −0.02225 | 0.1619 | 0.05392 | 0.01112 | −0.004307 | −0.01039 | 0.06326 | −0.02664 | −0.04246 | 0.01412 | −0.04434 | −0.01271 | −0.01339 | 0.01164 | −0.03407 | −0.01807 | – | – | –
3 | COc1ccc(N(C(=O)CCl)C(C(=O)NCCc2ccccc2)c2cccs2)cc1 (stereo not drawn) [DPI4] | 0.0813 | −0.07596 | −0.0206 | −0.04482 | 0.116 | 0.02148 | 0.06864 | 0.00317 | 0.1443 | 0.1443 | 0.03153 | 0.004961 | 0.1295 | 0.03966 | 0.1612 | 0.2611 | 0.2547 | −0.02179 | – | – | –
4 | O=c1c(Cl)c(Cl)cnn1-c1ccc(Cl)c(C(F)(F)F)c1 [CIL25] | 0.02374 | −0.07209 | −0.009758 | −0.0273 | −0.003244 | 0.001852 | 0.04216 | −0.004428 | 0.09246 | 0.01628 | 0.06106 | 0.01683 | 0.03297 | −0.00415 | −0.05889 | 0.02909 | −0.001029 | 0.03879 | – | – | –
5 | O=C(CCCCCN1C(=O)c2cccc3cccc(c23)C1=O)NO [Scriptaid] | −0.0206 | −0.07856 | 0.03167 | 0.2681 | 0.2406 | 0.004892 | 0.0289 | 0.03611 | 0.2114 | 0.1113 | 0.1384 | 0.02102 | 0.02804 | −0.0282 | 0.07545 | −0.005396 | −0.0185 | 0.1205 | – | – | –
6 | COC(=O)[C@@H]1Cc2c([nH]c3ccccc23)C(C)(C)N1C(=O)CCl [CIL79] | 0.0798 | 0.02717 | 0.02938 | −0.04651 | 0.1763 | 0.003967 | 0.00956 | 0.01544 | 0.2136 | 0.2049 | −0.00637 | −0.008594 | 0.2258 | 0.04063 | 0.1984 | – | – | – | 6.80 | 6.25 | pEC50 [1]: 5.08; pEC50 [2]: 5.10; pEC50 [3]: 6.18
7 | COC(C)(C)C#CC(=O)c1cccc2ccccc12 [CIL34] | 0.07701 | −0.04374 | −0.02462 | 0.1215 | 0.07311 | 0.03951 | −0.032 | −0.01631 | 0.04257 | −0.0234 | −0.004372 | 0.03326 | −0.03852 | 0.04418 | −0.1073 | 0.05781 | 0.007029 | 0.005997 | – | – | –
8 | O=C(CCl)N(c1ccc(Cl)cc1)c1c[nH]c2ccccc12 [CIL75] | 0.04653 | 0.01301 | 0.03092 | −0.009103 | 0.2049 | −1.616E−05 | 0.0459 | 0.01184 | 0.2292 | 0.146 | −0.01643 | −0.01449 | 0.1883 | 0.07275 | 0.2311 | – | – | – | 7.22 | 6.50 | pEC50 [1]: 5.96; pEC50 [2]: 5.98; pEC50 [3]: 6.47
9 | O=S(=O)(c1ccc2c(c1)C(=NO)c1cc(S(=O)(=O)N3CCCCC3)ccc1-2)N1CCCCC1 [CIL56, 2,7-bis(piperidin-1-ylsulfonyl)-9H-fluoren-9-one oxime] | 0.1459 | 0.05831 | −0.01043 | −0.07221 | 0.1263 | 0.03219 | 0.004997 | 0.005978 | 0.2194 | 0.1358 | 0.02645 | 0.0004905 | 0.2368 | 0.03545 | 0.1986 | – | – | – | 6.67 | 5.89 | pEC50 [1]: 5.69; pEC50 [2]: 5.60; pEC50 [3]: 6.03
